Data taken from ChEMBL document CHEMBL5729330, “Galactoside inhibitor of galectins” (2022).

Molecular target: Galectin-3 (Homo sapiens, UniProt P17931)
Test: Fluorescence Anisotropy Assay: The affinity of Example 1-71 for galectins were determined by a fluorescence anisotropy assay where the compound was used as an inhibitor of the interaction between galectin and a fluorescein tagged saccharide probe

Chain of Galectin-3 (P17931 whole entry): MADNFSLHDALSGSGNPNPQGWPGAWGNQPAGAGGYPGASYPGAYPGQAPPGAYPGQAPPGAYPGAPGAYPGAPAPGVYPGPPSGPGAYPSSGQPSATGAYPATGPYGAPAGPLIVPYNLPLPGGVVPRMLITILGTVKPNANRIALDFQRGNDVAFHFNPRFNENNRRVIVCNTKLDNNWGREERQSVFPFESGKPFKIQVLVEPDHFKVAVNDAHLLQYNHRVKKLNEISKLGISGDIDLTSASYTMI

| SMILES | Kd [nM] |
| --- | --- |
| CCOC1[C@@H](Sc2cc(Cl)cnc2C(=O)N2CCC2)OC(CO)[C@H](O)[C@@H]1n1cc(-c2cc(F)c(F)c(F)c2)nn1 (some centres undefined) | 21 |
| CCOC1[C@@H](Sc2cc(Cl)cnc2C(=O)N2CCC2)OC(CO)[C@H](O)[C@@H]1n1cc(-c2ccc(Cl)c(F)c2)nn1 (some centres undefined) | 17 |
| COC1[C@@H](Sc2cc(Cl)cnc2C(=O)N2CCC2)OC(CO)[C@H](O)[C@@H]1n1cc(-c2ccc(Cl)c(F)c2)nn1 (some centres undefined) | 21 |
| COC1[C@@H](Sc2cc(Cl)cnc2C(=O)N2CCC2)OC(CO)[C@H](O)[C@@H]1n1cc(-c2cc(F)c(Cl)c(F)c2)nn1 (some centres undefined) | 16 |
| CCOC1[C@@H](Sc2cc(Cl)cnc2C(=O)N2CCC2)OC(CO)[C@H](O)[C@@H]1n1cc(-c2cc(F)c(Cl)c(F)c2)nn1 (some centres undefined) | 11 |

The next compounds have a lower Kd than those just listed; values first:

| Kd [nM] | SMILES |
| --- | --- |
| 6 | COC1[C@@H](Sc2cc(Br)cnc2C(=O)N2CCC2)OC(CO)[C@H](O)[C@@H]1n1cc(-c2cc(F)c(F)c(F)c2)nn1 (some centres undefined) |
| 10 | COC1[C@@H](Sc2cc(Cl)cnc2C(=O)N2CCC2)OC(CO)[C@H](O)[C@@H]1n1cc(-c2cc(F)c(F)c(F)c2)nn1 (some centres undefined) |
| 7 | COC1[C@@H](Sc2cc(Br)cnc2C(=O)N2CCC2)OC(CO)[C@H](O)[C@@H]1n1cc(-c2ccc(Cl)c(F)c2)nn1 (some centres undefined) |
| 8 | CCOC1[C@@H](Sc2cc(Br)cnc2C(=O)N2CCC2)OC(CO)[C@H](O)[C@@H]1n1cc(-c2ccc(Cl)c(F)c2)nn1 (some centres undefined) |
